BindingDB's records for doi:10.1021/cb300671s (National Cancer Institute-Bethesda, 2013)

What was measured:
[1] = molecular target: Protein kinase C alpha type (Homo sapiens, UniProt P17252)
[2] = molecular target: T1, Protein kinase C epsilon type (Homo sapiens, UniProt Q02156)
T1 sequence (Q02156 whole entry): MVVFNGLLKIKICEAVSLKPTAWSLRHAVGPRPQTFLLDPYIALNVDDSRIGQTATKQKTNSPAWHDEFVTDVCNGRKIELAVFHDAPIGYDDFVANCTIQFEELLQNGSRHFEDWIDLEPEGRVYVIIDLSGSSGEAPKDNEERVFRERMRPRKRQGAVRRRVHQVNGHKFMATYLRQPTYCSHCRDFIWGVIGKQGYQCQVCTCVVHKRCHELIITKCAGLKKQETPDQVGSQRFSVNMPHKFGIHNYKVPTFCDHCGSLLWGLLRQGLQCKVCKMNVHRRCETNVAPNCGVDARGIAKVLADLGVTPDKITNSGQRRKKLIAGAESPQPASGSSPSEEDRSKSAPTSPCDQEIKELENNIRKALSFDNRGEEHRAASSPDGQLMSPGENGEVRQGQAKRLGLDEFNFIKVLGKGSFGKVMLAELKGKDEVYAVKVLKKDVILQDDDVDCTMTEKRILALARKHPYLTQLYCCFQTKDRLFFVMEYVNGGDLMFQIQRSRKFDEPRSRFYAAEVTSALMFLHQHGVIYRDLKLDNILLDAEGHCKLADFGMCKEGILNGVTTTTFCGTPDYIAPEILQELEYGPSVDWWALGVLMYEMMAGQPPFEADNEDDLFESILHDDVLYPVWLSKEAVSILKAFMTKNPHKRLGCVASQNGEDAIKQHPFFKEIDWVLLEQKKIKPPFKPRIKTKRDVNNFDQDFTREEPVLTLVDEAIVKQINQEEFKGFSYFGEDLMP

Protein kinase C = Protein kinase C (Mus musculus, UniProt Q4VA93)
[3] = molecular target: Protein kinase C beta type (Homo sapiens, UniProt P05771)
[4] = molecular target: Protein kinase C delta type (Homo sapiens, UniProt Q05655)
Chain of Protein kinase C delta type (Q05655 whole entry): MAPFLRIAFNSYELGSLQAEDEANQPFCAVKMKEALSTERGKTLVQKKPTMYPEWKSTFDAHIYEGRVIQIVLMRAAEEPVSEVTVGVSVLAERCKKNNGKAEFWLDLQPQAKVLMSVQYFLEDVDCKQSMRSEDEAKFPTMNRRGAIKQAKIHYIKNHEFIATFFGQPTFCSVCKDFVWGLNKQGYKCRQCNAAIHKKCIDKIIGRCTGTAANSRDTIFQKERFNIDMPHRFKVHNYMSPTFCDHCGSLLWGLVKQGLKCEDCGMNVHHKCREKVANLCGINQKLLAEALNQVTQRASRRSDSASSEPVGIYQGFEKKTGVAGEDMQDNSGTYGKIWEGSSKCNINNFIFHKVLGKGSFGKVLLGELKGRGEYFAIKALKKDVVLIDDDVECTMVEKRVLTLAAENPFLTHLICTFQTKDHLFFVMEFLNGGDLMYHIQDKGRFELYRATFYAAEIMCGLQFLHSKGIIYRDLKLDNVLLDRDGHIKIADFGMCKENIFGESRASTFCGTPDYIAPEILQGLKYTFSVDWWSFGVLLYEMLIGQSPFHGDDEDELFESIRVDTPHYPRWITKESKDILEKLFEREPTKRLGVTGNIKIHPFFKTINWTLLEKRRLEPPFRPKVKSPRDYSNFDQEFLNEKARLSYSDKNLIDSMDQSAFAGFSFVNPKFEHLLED

Chain of Protein kinase C beta type (P05771 whole entry): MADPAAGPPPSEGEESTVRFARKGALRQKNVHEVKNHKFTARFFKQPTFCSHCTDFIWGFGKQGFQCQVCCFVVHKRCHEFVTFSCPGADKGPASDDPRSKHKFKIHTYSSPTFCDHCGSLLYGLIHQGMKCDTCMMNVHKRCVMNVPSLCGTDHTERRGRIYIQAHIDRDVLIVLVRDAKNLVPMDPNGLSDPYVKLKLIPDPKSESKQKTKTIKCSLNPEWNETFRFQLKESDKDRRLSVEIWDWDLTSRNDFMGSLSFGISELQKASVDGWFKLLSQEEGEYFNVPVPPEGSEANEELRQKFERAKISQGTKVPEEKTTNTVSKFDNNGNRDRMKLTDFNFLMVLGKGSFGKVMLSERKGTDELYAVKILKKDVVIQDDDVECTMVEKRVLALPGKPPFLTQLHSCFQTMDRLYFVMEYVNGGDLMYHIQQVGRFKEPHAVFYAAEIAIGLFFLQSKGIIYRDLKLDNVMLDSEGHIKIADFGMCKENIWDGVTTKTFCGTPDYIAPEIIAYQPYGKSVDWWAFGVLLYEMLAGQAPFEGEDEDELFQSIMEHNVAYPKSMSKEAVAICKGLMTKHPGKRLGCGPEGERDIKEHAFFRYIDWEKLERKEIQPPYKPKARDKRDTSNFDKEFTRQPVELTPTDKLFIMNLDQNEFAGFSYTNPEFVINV

| SMILES | Kd [1] [nM] | Kd [2] [nM] | Kd (Protein kinase C) [nM] | Kd [3] [nM] | Kd [4] [nM] |
| --- | --- | --- | --- | --- | --- |
| CCC/C=C/C=C/C(=O)O[C@H]1/C(=C/C(=O)OC)C[C@H]2C[C@H]([C@@H](C)O)OC(=O)C[C@H](O)C[C@@H]3C[C@H](OC(C)=O)C(C)(C)[C@](O)(C[C@@H]4C/C(=C/C(=O)OC)C[C@H](/C=C/C(C)(C)[C@]1(O)O2)O4)O3 | 0.73 | 0.24 | 0.48 | 0.42 | – |
| COC(=O)/C=C1/C[C@H]2C[C@]3(O)O[C@H](C[C@@H](O)CC(=O)O[C@@H]([C@@H](C)O)C[C@@H]4C/C(=C\C(=O)OC)[C@H](OC(C)=O)[C@@](O)(O4)C(C)(C)/C=C/[C@@H](C1)O2)C[C@H](OC(C)=O)C3(C)C [Bryostatin] | 0.44 | 0.16 | 0.26 | 0.32 | 0.21 |
| CCCC(=O)O[C@@H]1[C@@H](C)[C@@]2(O)[C@@H](C=C(CO)C[C@@]3(O)C(=O)C(C)=C[C@@H]23)[C@H]2C(C)(C)[C@]12OC(=O)CCC [Butyric acid (1aS,1bS,4aS,7aS,8R,9S,9aR)-9-butyryloxy-4a,7b-dihydroxy-3-((R)-hydroxymethyl)-1,1,6,8-tetramethyl-5-oxo-1,1a,1b,4,4a,5,7a,7b,8,9-decahydro-cyclopropa[3,4]benzo[1,2-e]azulen-9a-yl ester] | – | – | 0.3 | – | – |
